Reference: patent US10791740B2, “Enhancement of antibiotic efficacy” (priority 2014, dated 2020)
≈ marks a conversion by molar mass, not a printed value. Like-named read-outs stand apart in the source and are kept apart here.

Tests used:
[1] = test system: tetracycline resistant E. coli; format: cell-based, Escherichia coli; details: for MIC: single agent, Table 5; for MIC (μM) of amphiphile alone: tetracycline resistant E. coli, Tables 6 and 7
Source text: (§1) Certain aspects are drawn to a method for increasing or enhancing the antimicrobial activity of an antimicrobial agent. As used herein, the “antimicrobial activity” of an antimicrobial agent is defined as the property of a substance to inhibit the growth and reproduction of a microbial organism or to kill it. Common terms generally applied to bacteria are bacteriostatic (stops growth) and bactericidal (kills bacteria). Depending on the concentrations applied, microbial growth can be slowed or stopped in comparison to concurrent experiments conducted in the absence of an antimicrobial agent. Depending on the concentrations applied, additional microbe death can occur in comparison to concurrent experiments conducted in the absence of an antimicrobial agent. […] The MIC is the lowest concentration of any agent having antimicrobial activity that inhibits the growth of a microorganism as judged by visual inspection. MIC can be determined by inoculating media with the organism and adding the antimicrobial agent diluted successively in half.
(§2) Among the organisms studied are several strains of the bacterium E. coli.
N,N′-Dibenzyl-4,13-diaza-18-crown-6 is referred to in the table as dibenzyldiaza-18-crown-6.
(§3) Minimal Inhibitory Concentration (MIC) Procedure. […] Prepare initial concentration of all the compounds required. • 5. […] Vortex each test tube for 2-3 seconds. • 11.

[2] = cited from earlier work
E. coli [3] = details: Journal of the American Chemical Society 2002, 124, 9022-3, cited from earlier work
K-12 E. coli [4] = experiment: Combination of amphiphile and antibiotic against K-12 E. coli
Procedure: (§6) Steps 1-7, described in the MIC procedure, shown in Example 2, were followed. • 2. While the E. coli grew, the appropriate volume of compound was added to each test tube. • 3. Antibiotics were added at the required volume of solution to obtain the desired concentration in each test tube. […] Each test tube was vortexed for 2-3 seconds. • 5. Steps 10-12 from the MIC procedure, shown in Example 2, were then executed.

DH5α E. coli [5] = experiment: Combination of lariat ether and antibiotic against DH5α E. coli; details: 0.4 vol-% DMSO
Procedure: The volume of water added was between 12 to 0.5 μL. The volume of water added was not constant but the volume of media was changed so that the total volume was kept constant at 2 mL.
as §6

HEK-293 cells = experiment: MTT assay of toxicity to HEK-293 cells
Procedure: The toxicity of C6. C8, C10. C11 and C14 lariat ethers to HEK-293 cells was determined by using an MTT assay. […] The abscissa is a logarithmic scale for the concentrations ranging from 1 μM to 1000 μM (1 mM) used in the experiment. The ordinate represents percent survival of HEK-293 cells.
Growth medium containing DMEM with high glucose (ATCC). 10% fetal bovine serum (FBS: Sigma-Aldrich) and 10 μg/mL of blasticidin (Thermo-Fischer) was prepared. HEK 293 cells were thawed out from cryo-preserved samples in 10 mL growth media, centrifuged at 500 rpm for 10 minutes to remove preservative. The cells were then resuspended in fresh growth medium and cultured using a T-75 flask (Thermo-Fischer) at 37° C. and 5% CO2. Cells were monitored for confluence and growth medium was replaced every 48 h, until cells were placed onto a 96-well plate for toxicity studies.
After reaching 80-90% confluence, cells were trypsinized and suspended in media containing DMEM and 10% FBS (no antibiotics). The cells were counted on a hemacytometer and plated at a density of 20,000 cells per well in a 96-well plate and grown for 24 hours to reach 60-70% confluence. DMSO stocks of C6, C8, C10, C11 and C14 diaza-18-crown-6 lariat ethers were prepared at […] and diluted 1:10 to get working concentrations of 20 mM, 2 mM, and 0.2 mM. Each stock was further diluted […] into DMEM supplemented with 10% FBS to get final concentrations of 1 mM, 0.1 mM, 0.01 mM (10 μM) and 0.001 mM (1 μM). The original media was then removed from the cells and replaced with 200 μL media containing the desired concentration of compound. Three wells were used for each concentration providing experimental triplicates. […] The absorbance was measured at 570 nm and nonspecific absorbance was corrected at 650 nm, using SpectraMax340 micro plate reader.
The experiment was performed in triplicate and the average of percent survival of three experiments was determined. […] The lethal dose 50 (LD50) for each compound was calculated by using the equation for a logarithmic regression curve.

DH5α E. coli [6] = experiment: Inhibitory concentration (IC50) to DH5α E. coli cells (FIG. 4); format: cell-based, Escherichia coli; details: DH5α E. coli, FIG. 4
Source text: Two commonly used abbreviations are LD50 and IC50. The former is the concentration of an agent that comprises a lethal dose to 50% of the organism under study. The latter is the concentration of agent that inhibits growth of 50% of the organism under study. […] The abscissa represents the number of (CH2) groups in spacer chains. The ordinate is logarithmic and reflects the concentrations (in μM) of the various lariat ethers used.

DH5α E. coli [7] = experiment: MIC of single agents against DH5α E. coli; format: cell-based, Escherichia coli; details: for MIC (μM) of lariat ether alone: DH5α E. coli, Tables 2 and 3; for MIC to DH5α E. coli: single agent, values of the running text
Source text: as §1, §2, §3

B. stubtilis = experiment: MIC determination, B. subtilis (Table 1); format: cell-based, Bacillus subtilis; details: single agent
Source text: (§4) Certain aspects are drawn to a method for increasing or enhancing the antimicrobial activity of an antimicrobial agent. As used herein, the “antimicrobial activity” of an antimicrobial agent is defined as the property of a substance to inhibit the growth and reproduction of a microbial organism or to kill it. Common terms generally applied to bacteria are bacteriostatic (stops growth) and bactericidal (kills bacteria). Depending on the concentrations applied, microbial growth can be slowed or stopped in comparison to concurrent experiments conducted in the absence of an antimicrobial agent. Depending on the concentrations applied, additional microbe death can occur in comparison to concurrent experiments conducted in the absence of an antimicrobial agent. The results of minimum inhibitory concentration (MIC) evaluations and growth curves are presented herein and the conditions are specified. The MIC is the lowest concentration of any agent having antimicrobial activity that inhibits the growth of a microorganism as judged by visual inspection. MIC can be determined by inoculating media with the organism and adding the antimicrobial agent diluted successively in half. […] Reference herein to increasing or enhancing activity, efficacy, potency, and the like are used interchangeably to mean that when the synthetic amphiphile is present, the ability of the antimicrobial agent to inhibit the growth of or to kill an organism will be manifested at a concentration lower than would be required to achieve the same results in the absence of said synthetic amphiphile.
(§5) Among the organisms studied are several strains of the bacterium E. coli. […] Experiments were conducted to determine the MIC values for the synthetic amphiphiles known as lariat ethers according to the procedures described in Antimicrobial M07-A9: Methods for Dilution Antimicrobial Susceptibility Tests for Bacteria that Grow Aerobically; Clinical and Laboratory Standards Institute, 2012; Vol. 32, 67 pp. MIC values so determined for several lariat ethers and for several antibiotics are shown in Table 1.

K-12 E. coli [8] = experiment: MIC of single agents against K-12 E. coli
S. cerevisiae = experiment: MIC determination, S. cerevisiae (Table 1); format: cell-based, Saccharomyces cerevisiae; details: single agent
Source text: as §4, §5

[9] = test system: tetracycline resistant E. coli
Procedure: • 1. Steps 1-7, described in the MIC procedure, shown in Example 2, were followed. • 2. While the E. coli grew, the appropriate volume of compound was added to each test tube. • 3. Antibiotics were added at the required volume of solution to obtain the desired concentration in each test tube. […] Each test tube was vortexed for 2-3 seconds. • 5. Steps 10-12 from the MIC procedure, shown in Example 2, were then executed.

E. coli [10] = experiment: MIC determination, E. coli (Table 1); format: cell-based, Escherichia coli; details: single agent
Source text: as §1, §2, §3

Molecule | MIC [1] | MIC (μM) of amphiphile alone [1] | LD50 to HEK-293 (HEK-293 cells) | IC50 (DH5α E. coli [6]) | MIC (μM) of lariat ether alone (DH5α E. coli [7]) | MIC to DH5α E. coli (DH5α E. coli [7]) | MIC (μM) B. stubtilis (B. stubtilis) | MIC (μM) of amphiphile alone (K-12 E. coli [8]) | MIC (μM) S. cerevisiae (S. cerevisiae) | MIC (E. coli [10]) | also measured
c1ccc(CN2CCOCCOCCN(CCCCCCCCCCN3CCOCCOCCN(CCCCCCCCCCN4CCOCCOCCN(Cc5ccccc5)CCOCCOCC4)CCOCCOCC3)CCOCCOCC2)cc1 | 35 ± 5 µM (≈ 43.5 µg/mL) | 35 µM | – | – | – | – | – | – | – | – | cation transport in liposome membranes ([2]; thickest DEPC membranes): nearly inactive
c1ccc(CN2CCOCCOCCN(CCCCCCCCN3CCOCCOCCN(CCCCCCCCN4CCOCCOCCN(Cc5ccccc5)CCOCCOCC4)CCOCCOCC3)CCOCCOCC2)cc1 [C8 hydraphile] | 250 ± 10 µM (≈ 297 µg/mL) | 250 µM | – | – | – | – | – | – | – | – | cation transport in liposome membranes ([2]; DMPC, DOPC, or DEPC membranes): failed to transport; toxicity to E. coli (E. coli [3]; listed as C8 benzyl hydraphile): did not; toxicity to E. coli (E. coli [3]; listed as hydraphile having —(CH2)8— spacers): did not exhibit toxicity
CCCCCCCCCCCN1CCOCCOCCN(CCCCCCCCCCC)CCOCCOCC1 [C11 lariat ether, N,N′-di-n-undecyl-4,13-diaza-18-crown-6] | 24 µM (≈ 13.7 µg/mL) | 24 µM | 22 µM | 12 µM | 24 µM | 24 µM | 9 µM (≈ 5.14 µg/mL) | 24 µM | 1.5 µM (≈ 0.856 µg/mL) | 24 µM (≈ 13.7 µg/mL) | Fold Enhancement (K-12 E. coli [4]; Rifampicin with 6 μM C11 lariat ether): 2 fold; Fold Enhancement (K-12 E. coli [4]; Tetracycline with 6 μM C11 lariat ether): ~2 fold; Fold Enhancement (DH5α E. coli [5]; rifampicin with 8 μM n-C11 lariat ether): 4 fold; Fold Enhancement (DH5α E. coli [5]; rifampicin with 12 μM n-C11 lariat ether): 10 fold; Fold Enhancement (DH5α E. coli [5]; rifampicin with 16 μM n-C11 lariat ether): 10 fold; Fold Enhancement (DH5α E. coli [5]; rifampicin with 18 μM n-C11 lariat ether): 20 fold; Fold Enhancement (DH5α E. coli [5]; tetracycline with 4 μM n-C11 lariat ether): 4 fold; Fold Enhancement (DH5α E. coli [5]; tetracycline with 12 μM n-C11 lariat ether): 12 fold; Fold Enhancement (DH5α E. coli [5]; tetracycline with 16 μM n-C11 lariat ether): 48 fold; Fold Enhancement (DH5α E. coli [5]; tetracycline with 18 μM n-C11 lariat ether): 8 fold; Fold Enhancement ([9]; Tetracycline with 8 μM C11 lariat ether): 5 fold; Fold Enhancement ([9]; Tetracycline with 12 μM C11 lariat ether): 10 fold; Fold Enhancement ([9]; Tetracycline with 16 μM C11 lariat ether): 10 fold; Fold Enhancement ([9]; Tetracycline with 18 μM C11 lariat ether): 10 fold
N,N′-di-n-decyl-4,13-diaza-18-crown-6 [C10 lariat ether] | 16 µM | 16 µM | – | – | – | 12 µM | 2.8 µM | 12 µM | 2.8 µM | 11 µM | toxicity to HEK-293, rank among lariat ethers (HEK-293 cells; C6 to C14 lariat ethers compared): highest toxicity
N,N′-di-n-octyl-4,13-diaza-18-crown-6 [C8 lariat ether] | 120 µM | 120 µM | 33 µM | 150 µM | >120 µM | > 240 µM | 105 µM | 300 µM | 25 µM | 120 µM | MIC to DH5α E. coli (DH5α E. coli [7]; listed as C8 Lariat): 120 µM
